“And” between values parts separate entries of the source, which are not always exact repeats. Equal entries are not always repeated. Toxic doses and inconclusive results are not listed. No stated cut-off is given here; in the data, active means T/C of 150% or more; inactive means T/C below 125%.
Test system: L1210 leukemia ip in BDF1 mice, survival T/C
Assay: NCI In Vivo Anticancer Drug Screen. Data for tumor model L1210 Leukemia (intraperitoneal) in B6D2F1 (BDF1) mice
Conditions: endpoint: mean survival time, higher = longer survival
Outline: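 Each compound was tested against a transplantable tumor grown in mice. The endpoint was survival, with treated animals benchmarked against vehicle controls as a simple ratio.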

[1] = dose: 100.0 mg/kg/injection, schedule: Q01DX001 (ip), vehicle: Klucel (hydroxypropylcellulose) (HPC)
[2] = dose: 200.0 mg/kg/injection, schedule: Q01DX001 (ip), vehicle: Klucel (hydroxypropylcellulose) (HPC)
[3] = dose: 100.0 mg/kg/injection, schedule: Q04DX003 (ip), vehicle: saline
[4] = dose: 200.0 mg/kg/injection, schedule: Q04DX003 (ip), vehicle: saline
[5] = dose: 400.0 mg/kg/injection, schedule: Q04DX003 (ip), vehicle: saline
[6] = dose: 100.0 mg/kg/injection, schedule: Q04DX002 (ip), vehicle: Klucel (hydroxypropylcellulose) (HPC)
[7] = dose: 50.0 mg/kg/injection, schedule: Q01DX009 (ip), vehicle: saline with Tween-80
[8] = dose: 100.0 mg/kg/injection, schedule: Q01DX009 (ip), vehicle: saline with Tween-80
[9] = dose: 25.0 mg/kg/injection, schedule: Q01DX009 (ip), vehicle: saline with Tween-80
[10] = dose: 100.0 mg/kg/injection, schedule: Q04DX003 (ip), vehicle: saline with Tween-80
[11] = dose: 100.0 mg/kg/injection, schedule: Q01DX009 (ip), vehicle: Klucel (hydroxypropylcellulose) (HPC)
[12] = dose: 100.0 mg/kg/injection, schedule: Q04DX003 (ip), vehicle: Klucel (hydroxypropylcellulose) (HPC)
[13] = dose: 200.0 mg/kg/injection, schedule: Q01DX009 (ip), vehicle: Klucel (hydroxypropylcellulose) (HPC)
[14] = dose: 200.0 mg/kg/injection, schedule: Q04DX003 (ip), vehicle: Klucel (hydroxypropylcellulose) (HPC)
[15] = dose: 400.0 mg/kg/injection, schedule: Q01DX009 (ip), vehicle: Klucel (hydroxypropylcellulose) (HPC)
[16] = dose: 400.0 mg/kg/injection, schedule: Q04DX003 (ip), vehicle: Klucel (hydroxypropylcellulose) (HPC)
[17] = dose: 25.0 mg/kg/injection, schedule: Q04DX003 (ip), vehicle: Klucel (hydroxypropylcellulose) (HPC)
[18] = dose: 50.0 mg/kg/injection, schedule: Q04DX003 (ip), vehicle: Klucel (hydroxypropylcellulose) (HPC)

Measured: T/C

[O-][n+]1c(C(Cl)(Cl)Cl)cc(Cl)nc1Cl
inactive: [1] 98 % of control | [2] 97 % of control

Clc1ccc(NC(Nc2ccc(Cl)cc2)C(Cl)(Cl)Cl)cc1
inactive: dose: 50.0 mg/kg/injection, schedule: Q01DX001 (ip), vehicle: Klucel (hydroxypropylcellulose) (HPC) 93 % of control | [1] 93 % of control | [2] 90 % of control

COC(=O)c1ccccc1OC(=O)c1ccccc1
inactive: [3] 105 % of control | [4] 97 % of control | [5] 105 % of control

CCCC#CC(=O)OCCCCCC
inactive: dose: 100.0 mg/kg/injection, schedule: Q04DX002 (ip), vehicle: saline 96 % of control | dose: 200.0 mg/kg/injection, schedule: Q04DX002 (ip), vehicle: saline 111 % of control | dose: 400.0 mg/kg/injection, schedule: Q04DX002 (ip), vehicle: saline 103 % of control

O=C1C=C2C(=CCOC2O)O1 (stereo unspecified)
inactive: dose: 0.25 mg/kg/injection, schedule: Q01DX009 (ip), vehicle: Klucel (hydroxypropylcellulose) (HPC) 97 % of control | dose: 0.5 mg/kg/injection, schedule: Q01DX009 (ip), vehicle: Klucel (hydroxypropylcellulose) (HPC) 103 % of control | dose: 1.0 mg/kg/injection, schedule: Q01DX009 (ip), vehicle: Klucel (hydroxypropylcellulose) (HPC) 109 % of control | dose: 2.0 mg/kg/injection, schedule: Q01DX009 (ip), vehicle: Klucel (hydroxypropylcellulose) (HPC) 104 % of control | dose: 4.0 mg/kg/injection, schedule: Q01DX009 (ip), vehicle: Klucel (hydroxypropylcellulose) (HPC) 101 % of control

CCCCCCCNC(CC(C)C)C(=O)OCC (stereo unspecified)
inactive: dose: 25.0 mg/kg/injection, schedule: Q04DX002 (ip), vehicle: Klucel (hydroxypropylcellulose) (HPC) 91 % of control | dose: 50.0 mg/kg/injection, schedule: Q04DX002 (ip), vehicle: Klucel (hydroxypropylcellulose) (HPC) 97 % of control | [6] 94 % of control

CC(Br)CNC(=O)c1cc([N+](=O)[O-])cc([N+](=O)[O-])c1 (stereo unspecified)
inactive: dose: 75.0 mg/kg/injection, schedule: Q04DX003 (ip), vehicle: Klucel (hydroxypropylcellulose) (HPC) 96 % of control | dose: 150.0 mg/kg/injection, schedule: Q04DX003 (ip), vehicle: Klucel (hydroxypropylcellulose) (HPC) 92 % of control | dose: 300.0 mg/kg/injection, schedule: Q04DX003 (ip), vehicle: Klucel (hydroxypropylcellulose) (HPC) 94 % of control

O=c1oc(-c2ccccc2Cl)nc2cc(Cl)ccc12
inactive: [7] 96 % of control | [8] 100 % of control

COc1cc(C)c(/C=N/NC(=O)c2ccncc2)cc1C
inactive: dose: 100.0 mg/kg/injection, schedule: Q04DX002 (ip), vehicle: carboxymethylcellulose (CMC) 103 % of control | dose: 200.0 mg/kg/injection, schedule: Q04DX002 (ip), vehicle: carboxymethylcellulose (CMC) 96 % of control | dose: 400.0 mg/kg/injection, schedule: Q04DX002 (ip), vehicle: carboxymethylcellulose (CMC) 92 % of control

CC(=O)Nc1nc(Cl)c([N+](=O)[O-])c(SCc2ccccc2)n1
inactive: [9] 90 % of control | [7] 93 % of control and 97 % of control | [8] 101 % of control and 104 % of control | [10] 87 % of control | dose: 200.0 mg/kg/injection, schedule: Q04DX003 (ip), vehicle: saline with Tween-80 98 % of control

CCS(=O)(=O)c1ccc(C)cc1
inactive: dose: 100.0 mg/kg/injection, schedule: Q01DX001 (ip), vehicle: saline 95 % of control | dose: 100.0 mg/kg/injection, schedule: Q01DX009 (ip), vehicle: saline 89 % of control | [3] 109 % of control | dose: 200.0 mg/kg/injection, schedule: Q01DX001 (ip), vehicle: saline 93 % of control | dose: 200.0 mg/kg/injection, schedule: Q01DX009 (ip), vehicle: saline 95 % of control | [4] 95 % of control | dose: 400.0 mg/kg/injection, schedule: Q01DX001 (ip), vehicle: saline 96 % of control | dose: 400.0 mg/kg/injection, schedule: Q01DX009 (ip), vehicle: saline 87 % of control | [5] 98 % of control

CC(=O)OCC(COC(C)=O)=C1N=C(c2ccccc2)OC1=O
inactive: [11] 103 % of control | [12] 95 % of control | [13] 106 % of control | [14] 95 % of control | [15] 107 % of control | [16] 97 % of control

CSCC1OC(n2cnc3c(N)nc(Cl)nc32)C(O)C1O (stereo unspecified)
inactive: dose: 3.12 mg/kg/injection, schedule: Q01DX009 (ip), vehicle: saline with Tween-80 97 % of control | dose: 6.25 mg/kg/injection, schedule: Q01DX009 (ip), vehicle: saline with Tween-80 102 % of control | dose: 12.5 mg/kg/injection, schedule: Q01DX009 (ip), vehicle: saline with Tween-80 107 % of control | [9] 91 % of control | dose: 25.0 mg/kg/injection, schedule: Q04DX003 (ip), vehicle: saline with Tween-80 97 % of control | dose: 50.0 mg/kg/injection, schedule: Q04DX003 (ip), vehicle: saline with Tween-80 101 % of control | dose: 100.0 mg/kg/injection, schedule: Q01DX001 (ip), vehicle: saline with Tween-80 95 % of control | [10] 108 % of control

COc1cc(O)c([N+](=O)[O-])cc1[N+](=O)[O-]
inactive: dose: 100.0 mg/kg/injection, schedule: Q01DX001 (ip), vehicle: carboxymethylcellulose (CMC) 96 % of control | dose: 200.0 mg/kg/injection, schedule: Q01DX001 (ip), vehicle: carboxymethylcellulose (CMC) 91 % of control | dose: 400.0 mg/kg/injection, schedule: Q01DX001 (ip), vehicle: carboxymethylcellulose (CMC) 100 % of control

CCOC(=O)c1cc(C(=O)OCC)c(C#N)c(=O)[nH]1
inactive: [11] 103 % of control | [12] 100 % of control | [13] 88 % of control | [14] 88 % of control | [15] 94 % of control | [16] 98 % of control

COC(=O)CS(=O)(=O)C(C)(C)C(=O)c1ccccc1
inactive: dose: 37.5 mg/kg/injection, schedule: Q01DX009 (ip), vehicle: saline 96 % of control | dose: 75.0 mg/kg/injection, schedule: Q01DX009 (ip), vehicle: saline 92 % of control | dose: 150.0 mg/kg/injection, schedule: Q01DX009 (ip), vehicle: saline 100 % of control | dose: 300.0 mg/kg/injection, schedule: Q01DX009 (ip), vehicle: saline 94 % of control

N#Cc1c(NN)n(C2OC(CO)C(O)C2O)c2ncnc(N)c12 (stereo unspecified)
inactive: dose: 25.0 mg/kg/injection, schedule: Q01DX005 (ip), vehicle: saline 107 % of control | dose: 50.0 mg/kg/injection, schedule: Q01DX005 (ip), vehicle: saline 90 % of control | dose: 100.0 mg/kg/injection, schedule: Q01DX005 (ip), vehicle: saline 105 % of control | dose: 200.0 mg/kg/injection, schedule: Q01DX005 (ip), vehicle: saline 96 % of control

Cc1cc(C)c(NC(=O)Cc2ccccc2)cc1C
inactive: [6] 96 % of control | dose: 200.0 mg/kg/injection, schedule: Q04DX002 (ip), vehicle: Klucel (hydroxypropylcellulose) (HPC) 96 % of control | dose: 400.0 mg/kg/injection, schedule: Q04DX002 (ip), vehicle: Klucel (hydroxypropylcellulose) (HPC) 89 % of control

CCC(COS(=O)(=O)c1ccc(C)cc1)[N+](=O)[O-] (stereo unspecified)
inactive: [17] 112 % of control | [18] 96 % of control | [12] 86 % of control

CN1CN(c2ccccc2)C2(CCN(CCCCCCC#N)CC2)C1=O
inactive: [17] 102 % of control | [18] 94 % of control | [14] 90 % of control | [16] 97 % of control

C=CCN1C(=O)c2ccccc2C1=O
inactive: [11] 100 % of control | [12] 95 % of control | [13] 100 % of control | [14] 95 % of control | [15] 91 % of control | [16] 92 % of control

CC(C)C1CCC(NC(=O)NCCF)CC1 (stereo unspecified)
inactive: dose: 9.5 mg/kg/injection, schedule: Q01DX001 (ip), vehicle: other 105 % of control | dose: 19.0 mg/kg/injection, schedule: Q01DX001 (ip), vehicle: other 100 % of control | dose: 38.0 mg/kg/injection, schedule: Q01DX001 (ip), vehicle: other 102 % of control
